Values quoted from earlier work in patent publication US20090202444A1 (priority 2009, published 2009).

Tested on: bacteria

Q: With [Ag+] [silver ion] as the molecule, how does the “silver ion concentration for inhibition of bacterial growth” value read?
A: below 5 ppm
